Read-outs that look alike come from different tables or passages of the source.
Biological target: T1, STAT6 (Homo sapiens, UniProt P42226)
T1 construct: endogenous in cells; host or cells: MOLM-16, KU-812, SKNO1, MB231, L1236
T1 sequence (P42226 1-847): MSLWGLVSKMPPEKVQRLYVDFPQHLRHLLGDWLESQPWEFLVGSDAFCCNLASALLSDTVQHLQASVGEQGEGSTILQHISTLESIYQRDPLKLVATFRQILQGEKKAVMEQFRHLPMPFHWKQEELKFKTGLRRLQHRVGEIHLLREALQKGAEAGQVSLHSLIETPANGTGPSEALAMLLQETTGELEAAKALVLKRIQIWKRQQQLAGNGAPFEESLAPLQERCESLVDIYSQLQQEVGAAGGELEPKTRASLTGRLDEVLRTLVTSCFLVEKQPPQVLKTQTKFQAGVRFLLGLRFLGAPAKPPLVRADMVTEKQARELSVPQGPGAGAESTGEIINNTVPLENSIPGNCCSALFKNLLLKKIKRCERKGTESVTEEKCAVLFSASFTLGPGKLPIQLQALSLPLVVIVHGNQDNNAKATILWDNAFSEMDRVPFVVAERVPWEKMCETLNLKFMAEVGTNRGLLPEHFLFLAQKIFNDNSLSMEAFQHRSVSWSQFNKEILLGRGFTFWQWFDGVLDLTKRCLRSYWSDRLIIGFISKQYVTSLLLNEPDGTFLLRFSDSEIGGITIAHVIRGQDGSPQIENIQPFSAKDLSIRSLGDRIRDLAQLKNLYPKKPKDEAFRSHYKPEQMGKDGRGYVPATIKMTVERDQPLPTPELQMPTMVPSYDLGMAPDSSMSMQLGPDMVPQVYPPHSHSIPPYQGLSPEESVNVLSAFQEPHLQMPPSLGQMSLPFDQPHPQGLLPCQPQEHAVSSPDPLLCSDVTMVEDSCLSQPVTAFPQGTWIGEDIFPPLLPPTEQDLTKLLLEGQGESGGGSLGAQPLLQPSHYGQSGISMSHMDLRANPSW
Experiment: Immunoblotting (Western blot) analysis of STAT6 degradation efficiency of degraders in treated cells
Format: cell-based
Procedure, shortened: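 Treatment of cells with degraders at stated concentrations and exposure times comes first. Lysates are then equalised for total protein by BCA, and the proteins are separated, transferred and immunostained for STAT6 or STAT5 alongside GAPDH. Signal is quantified from infrared fluorescence.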

[1] = L1236 cells, read-out: DC50 S6 L1236
[2] = MOLM-16 cells, class symbols, read-out: DC50 S6 MOLM-16

Compound | DC50 [1] [µM] | DC50 [2] [µM] | DC50 (MOLM-16 cells, numeric bound, read-out: DC50 S6 MOLM-16) [µM]
Cc1ncsc1-c1ccc([C@H](C)NC(=O)[C@@H]2C[C@@H](O)CN2C(=O)[C@@H](NC(=O)CCCCCCNC(=O)CO[C@H]2C[C@@H](C(=O)N3CCC[C@H](c4ccccc4)C3)N(C(=O)[C@@H](NC(=O)c3cc4cc(C(F)(F)P(=O)(O)O)ccc4s3)C(C)(C)C)C2)C(C)(C)C)cc1 [Compound 439, (difluoro(2-(((S)-1-((2S,4S)-4-(2-((7-(((S)-1-((2S,4R)-4-hydroxy-2-(((S)-1-(4-(4-methylthiazol-5-yl)phenyl)ethyl)carbamoyl)pyrrolidin-1-yl)-3,3-dimethyl-1-oxobutan-2-yl)amino)-7-oxoheptyl)amino)-2-oxoethoxy)-2-((R)-3-phenylpiperidine-1-carbonyl)pyrrolidin-1-yl)-3,3-dimethyl-1-oxobutan-2-yl)carbamoyl)benzo[b]thiophen-5-yl)methyl)phosphonic acid] | > 10 | > 10 | 
O=C1CCC(N2Cc3c(C#CCCCCCC(=O)N4CC[C@H]5CC[C@@H](C(=O)N6CC[C@@H](c7ccccc7)C6)N5C(=O)[C@@H](NC(=O)c5cc6cc(C(F)(F)P(=O)(O)O)ccc6s5)C4)cccc3C2=O)C(=O)N1 (stereo partly drawn) [Compound 563, ((2-(((5S,8S,10aR)-3-(8-(2-(2,6-dioxopiperidin-3-yl)-1-oxoisoindolin-4-yl)oct-7-ynoyl)-6-oxo-8-((S)-3-phenylpyrrolidine-1-carbonyl)decahydropyrrolo[1,2-a][1,5]diazocin-5-yl)carbamoyl)benzo[b]thiophen-5-yl)difluoromethyl)phosphonic acid] | > 10 | > 10 | 
CC(C)(C)[C@H](NC(=O)c1cc2cc(C(F)(F)P(=O)(O)O)ccc2s1)C(=O)N1Cc2cc(OCC(=O)NCCCCCCCCCC#Cc3cccc4c3C(=O)N(C3CCC(=O)NC3=O)C4=O)ccc2C[C@H]1C(=O)N1CCC[C@H](c2ccccc2)C1 (stereo partly drawn) [Compound 561, ((2-(((2S)-1-((3S)-7-(2-((11-(2-(2,6-dioxopiperidin-3-yl)-1,3-dioxoisoindolin-4-yl)undec-10-yn-1-yl)amino)-2-oxoethoxy)-3-((R)-3-phenylpiperidine-1-carbonyl)-3,4-dihydroisoquinolin-2(1H)-yl)-3,3-dimethyl-1-oxobutan-2-yl)carbamoyl)benzo[b]thiophen-5-yl)difluoromethyl)phosphonic acid] |  | > 10 | 
Cc1ncsc1-c1ccc([C@H](C)NC(=O)[C@@H]2C[C@@H](O)CN2C(=O)[C@@H](NC(=O)CCCCNC(=O)CC(=O)N2CCN(C(=O)[C@@H](NC(=O)c3cc4cc(C(F)(F)P(=O)(O)O)ccc4s3)C(C)(C)C)[C@H](C(=O)N3CCO[C@H](c4ccccc4)C3)C2)C(C)(C)C)cc1 [Compound 446, (difluoro(2-(((S)-1-((S)-4-(3-((5-(((S)-1-((2S,4R)-4-hydroxy-2-(((S)-1-(4-(4-methylthiazol-5-yl)phenyl)ethyl)carbamoyl)pyrrolidin-1-yl)-3,3-dimethyl-1-oxobutan-2-yl)amino)-5-oxopentyl)amino)-3-oxopropanoyl)-2-((R)-2-phenylmorpholine-4-carbonyl)piperazin-1-yl)-3,3-dimethyl-1-oxobutan-2-yl)carbamoyl)benzo[b]thiophen-5-yl)methyl)phosphonic acid] | > 10 | > 10 | 
CC(C)(C)[C@H](NC(=O)c1cc2cc(C(F)(F)P(=O)(O)O)ccc2s1)C(=O)N1Cc2cc(OCC(=O)NCCC#Cc3ccc4c(c3)C(=O)N(C3CCC(=O)NC3=O)C4=O)ccc2C[C@H]1C(=O)N1CCO[C@H](c2ccccc2)C1 (stereo partly drawn) [Compound 538, ((2-(((2S)-1-((3S)-7-(2-((4-(2-(2,6-dioxopiperidin-3-yl)-1,3-dioxoisoindolin-5-yl)but-3-yn-1-yl)amino)-2-oxoethoxy)-3-((R)-2-phenylmorpholine-4-carbonyl)-3,4-dihydroisoquinolin-2(1H)-yl)-3,3-dimethyl-1-oxobutan-2-yl)carbamoyl)benzo[b]thiophen-5-yl)difluoromethyl)phosphonic acid] |  | > 10 | 
CC(C)(C)[C@H](NC(=O)c1cc2cc(C(F)(F)P(=O)(O)O)ccc2s1)C(=O)N1C[C@@H](OCC(=O)NCCCC#Cc2ccc3c(c2)C(=O)N(C2CCC(=O)NC2=O)C3=O)C[C@H]1C(=O)N1CCC[C@H](c2ccccc2)C1 (stereo partly drawn) [Compound 498, ((2-(((2S)-1-((2S,4S)-4-(2-((5-(2-(2,6-dioxopiperidin-3-yl)-1,3-dioxoisoindolin-5-yl)pent-4-yn-1-yl)amino)-2-oxoethoxy)-2-((R)-3-phenylpiperidine-1-carbonyl)pyrrolidin-1-yl)-3,3-dimethyl-1-oxobutan-2-yl)carbamoyl)benzo[b]thiophen-5-yl)difluoromethyl)phosphonic acid] |  | > 10 | 
CC(C)(C)[C@H](NC(=O)c1cc2cc(C(F)(F)P(=O)(O)O)ccc2s1)C(=O)N1Cc2cc(OCC(=O)NCCCCCCCCCC#Cc3ccc4c(c3)C(=O)N(C3CCC(=O)NC3=O)C4=O)ccc2C[C@H]1C(=O)N1CCC[C@H](c2ccccc2)C1 (stereo partly drawn) [Compound 562, ((2-(((2S)-1-((3S)-7-(2-((11-(2-(2,6-dioxopiperidin-3-yl)-1,3-dioxoisoindolin-5-yl)undec-10-yn-1-yl)amino)-2-oxoethoxy)-3-((R)-3-phenylpiperidine-1-carbonyl)-3,4-dihydroisoquinolin-2(1H)-yl)-3,3-dimethyl-1-oxobutan-2-yl)carbamoyl)benzo[b]thiophen-5-yl)difluoromethyl)phosphonic acid] |  | > 10 | 
CC(C)(C)[C@H](NC(=O)c1cc2cc(C(F)(F)P(=O)(O)O)ccc2s1)C(=O)N1C[C@@H](OCCCCCCC#Cc2cccc3c2CN(C2CCC(=O)NC2=O)C3=O)C[C@H]1C(=O)N1CCOC(c2cccnc2)C1 (stereo partly shown) [Compound 609] |  |  | > 0.3
Cc1ncsc1-c1ccc([C@H](C)NC(=O)[C@@H]2C[C@@H](O)CN2C(=O)[C@@H](NC(=O)CCCCCCCNC(=O)CC(=O)N2CCN(C(=O)[C@@H](NC(=O)c3cc4cc(C(F)(F)P(=O)(O)O)ccc4s3)C(C)(C)C)[C@H](C(=O)N3CCC[C@H](c4ccccc4)C3)C2)C(C)(C)C)cc1 [Compound 458, (difluoro(2-(((S)-1-((S)-4-(3-((8-(((S)-1-((2S,4R)-4-hydroxy-2-(((S)-1-(4-(4-methylthiazol-5-yl)phenyl)ethyl)carbamoyl)pyrrolidin-1-yl)-3,3-dimethyl-1-oxobutan-2-yl)amino)-8-oxooctyl)amino)-3-oxopropanoyl)-2-((R)-3-phenylpiperidine-1-carbonyl)piperazin-1-yl)-3,3-dimethyl-1-oxobutan-2-yl)carbamoyl)benzo[b]thiophen-5-yl)methyl)phosphonic acid] | > 10 | > 10 | 
CC(C)(C)[C@H](NC(=O)c1cc2cc(C(F)(F)P(=O)(O)O)ccc2s1)C(=O)N1C[C@@H](OCC(=O)NCCC#Cc2ccc3c(c2)C(=O)N(C2CCC(=O)NC2=O)C3=O)C[C@H]1C(=O)N1CCO[C@H](c2ccccc2)C1 (stereo partly drawn) [Compound 482, ((2-(((2S)-1-((2S,4S)-4-(2-((4-(2-(2,6-dioxopiperidin-3-yl)-1,3-dioxoisoindolin-5-yl)but-3-yn-1-yl)amino)-2-oxoethoxy)-2-((R)-2-phenylmorpholine-4-carbonyl)pyrrolidin-1-yl)-3,3-dimethyl-1-oxobutan-2-yl)carbamoyl)benzo[b]thiophen-5-yl)difluoromethyl)phosphonic acid] |  | > 10 | 
CC(C)(C)[C@H](NC(=O)c1cc2cc(C(F)(F)P(=O)(O)O)ccc2s1)C(=O)N1Cc2cc(OCC(=O)NCCCCCCCCC#Cc3cccc4c3C(=O)N(C3CCC(=O)NC3=O)C4=O)ccc2C[C@H]1C(=O)N1CCC[C@H](c2ccccc2)C1 (stereo partly drawn) [Compound 559, ((2-(((2S)-1-((3S)-7-(2-((10-(2-(2,6-dioxopiperidin-3-yl)-1,3-dioxoisoindolin-4-yl)dec-9-yn-1-yl)amino)-2-oxoethoxy)-3-((R)-3-phenylpiperidine-1-carbonyl)-3,4-dihydroisoquinolin-2(1H)-yl)-3,3-dimethyl-1-oxobutan-2-yl)carbamoyl)benzo[b]thiophen-5-yl)difluoromethyl)phosphonic acid] |  | > 10 | 
CC(C)(C)[C@H](NC(=O)c1cc2cc(C(F)(F)P(=O)(O)O)ccc2s1)C(=O)N1Cc2cc(OCC(=O)NCCCCC#Cc3cccc4c3C(=O)N(C3CCC(=O)NC3=O)C4=O)ccc2C[C@H]1C(=O)N1CCO[C@H](c2ccccc2)C1 (stereo partly drawn) [Compound 541, ((2-(((2S)-1-((3S)-7-(2-((6-(2-(2,6-dioxopiperidin-3-yl)-1,3-dioxoisoindolin-4-yl)hex-5-yn-1-yl)amino)-2-oxoethoxy)-3-((R)-2-phenylmorpholine-4-carbonyl)-3,4-dihydroisoquinolin-2(1H)-yl)-3,3-dimethyl-1-oxobutan-2-yl)carbamoyl)benzo[b]thiophen-5-yl)difluoromethyl)phosphonic acid] |  | > 10 | 

— patent US20230295197A1, “STAT5 and STAT6 Degraders and Uses Thereof” (REGENTS OF THE UNIVERSITY OF MICHICAN, priority 2022, published 2023)
